Tested on: Pythium aphanidermatum
Assay: In-vivo validation under greenhouse conditions in cucumber seedlings infected with Pythium aphanidermatum
Settings: preventative treatment 24 h before inoculation; 2 types of formulations; 100 to 400 ppm; evaluated 7 days after inoculation
Source text: FIGS. 1-8 show the effect of Licochalcone C (LIC) on cucumber seedlings survival in 8 independent experiments determined as percentage of disease severity 7 days following inoculation with Pythium aphanidermatum. FIGS. 9-11 show effect of Licochalcone C (LIC) on cucumber seedlings survival in 3 independent experiments determined as of disease severity 7 days following inoculation with Rhizoctonia solani. * means that p-value <0.05, ** means that p-value is <0.01, # means that p-value <0.1, n.s. means non-significant difference vs. non-treated plants. For formulation description used for Licochalcone C see Example 7.
To evaluate the effect of a Licochalcone C in infected plants compared to control plants (infected but not treated) the data was analysed by Student's t-test and the p-value is calculated. The minimum number of repeats in each experiment was 3. Results were considered significant if p<0.05. The data presented as mean with standard error mean from biological replicates. * means that p-value <0.05, ** means that p-value is <0.01, # means that p-value <0.1. […]
General description: Pythium aphanidermatum disease severity development was evaluated following preventative treatment by Licochalcone C (LIC) […]

COc1c(/C=C/C(=O)c2ccc(O)cc2)ccc(O)c1CC=C(C)C [Licochalcone C, (E)-3-[4-hydroxy-2-methoxy-3-(3-methylbut-2-enyl)phenyl]-1-(4-hydroxyphenyl)prop-2-en-1-one]
efficacy in preventing Pythium disease in cucumber seedling: up to 100%
